Measurements published in paper PMC12047801, “Disrupting the OTUD4-USP7 deubiquitinase complex to suppress herpesvirus replication: a novel antiviral strategy” (PLOS Pathogens, 2025).

Tested on: KSHV genome replication in BCBL-1 cells
Assay: Relative viral genomic copy number (latency) by qPCR in BCBL-1 cells
Assay type: cell-based
Settings: Fig. S1F, 100 μM, 48 h

## Ac-YGRKKRRQRRRGGVNQSASQSSN-NH2 [p8]
Replicate 1
  Relative viral genomic copy number: 1.16
Replicate 2
  Relative viral genomic copy number: 1.11
Replicate 3
  Relative viral genomic copy number: 0.96
